The record followed here is patent US12460245B2, “Luciferase sequences utilizing infrared-emitting substrates to produce enhanced luminescence” (Promega Corporation, priority 2014, dated 2025).

The target in assay [1] is T1, QuantiLum® Recombinant Luciferase (Photinus pyralis, UniProt P08659).
T1 construct: purchased Promega E1701
Briefly: Spectral scan using Aka Lumine as substrate. In kind it is biochemical. The settings on record: FIG. 19B. An excerpt: (§1) FIG. 19A and FIG. 19B illustrate the luminescence of CBR using Aka Lumine, PBI-4739 and PBI-4813 (FIG. 19A) and the spectral scan of QuantiLum® Recombinant Luciferase using Aka Lumine as substrate (FIG. 19B).

A further assay deals with CBR. Briefly: Luminescence of CBR using Aka Lumine, PBI-4739 and PBI-4813. In kind it is biochemical, click beetle. The settings on record: FIG. 19A.
Description: as §1

T1 sequence (P08659 whole entry): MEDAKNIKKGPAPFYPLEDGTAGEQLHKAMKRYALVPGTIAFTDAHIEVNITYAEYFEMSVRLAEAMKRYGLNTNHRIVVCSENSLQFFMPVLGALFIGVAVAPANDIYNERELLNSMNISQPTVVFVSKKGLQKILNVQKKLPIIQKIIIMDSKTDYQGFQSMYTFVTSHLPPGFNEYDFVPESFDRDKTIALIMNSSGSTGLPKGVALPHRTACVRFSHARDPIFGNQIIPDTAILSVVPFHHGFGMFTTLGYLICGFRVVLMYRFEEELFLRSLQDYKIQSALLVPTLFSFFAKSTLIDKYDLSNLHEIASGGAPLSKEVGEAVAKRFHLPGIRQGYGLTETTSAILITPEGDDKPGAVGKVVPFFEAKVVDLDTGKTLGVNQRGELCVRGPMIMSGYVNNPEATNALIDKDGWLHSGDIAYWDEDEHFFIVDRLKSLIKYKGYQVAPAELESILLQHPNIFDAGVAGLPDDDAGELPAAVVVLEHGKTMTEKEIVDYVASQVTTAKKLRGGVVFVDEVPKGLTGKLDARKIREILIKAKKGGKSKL

In the case of `CN(C)c1ccc(/C=C/C=C/C2=N[C@@H](C(=O)O)CS2)cc1` [Aka Lumine], in assay [1], the “emission wavelength (less red)” value was 675 nm. Besides, the brightness entry in the assay on CBR is reported as “dimmer”.
